Assay results from patent US4304778A, “4-Aminoquinazoline derivatives having fungicidal, anti-insect and acaricidal properties” (Sankyo Company Limited, priority 1978, dated 1981).

Tests used:
Phytophthora infestans = type: in vivo; settings: tomato late blight; 500 ppm; after 5 days; average per leaf
Alternalia solani = experiment: Effect on early blight in tomatoes; type: in vivo; settings: tomato early blight; 500 ppm; 3 days in greenhouse
Method: (§1) In the following Examples, wettable powders prepared according to the procedures of Example 4 were used, each powder containing 50% by weight of the active compound of this invention.
Groups of tomato plants (variety Shinfukuju) were planted, two per pot, in a series of Wagner pots (diameter 12 cm) and used for the following test when at the 5 to 6 leaf stage. Each pot was treated with 30 ml of an aqueous suspension containing 500 ppm of one of the active compounds shown in Table 3, applied to the plants by spraying over their stems and leaves. After air-drying the plants, a spore suspension of the pathogenic microorganism Alternalia solani was sprayed over each plant, and the plants were kept in a wet room for 24 hours at 20°-22° C. and 100% relative humidity. The pots were then placed in a greenhouse for 3 days. All leaves were then examined for signs of the disease and the number of disease spots per leaf was calculated, using three pots for each compound.

[1] = tested on: Colletotrichum lagenarium; experiment: Effect on anthracnose in cucumbers; type: in vivo; settings: cucumber anthracnose; 500 ppm; seven days; cotyledon and first leaf
Method: as §1
Groups of cucumber plants (variety Sagamihanshiro) were planted, two per pot, in a series of Wagner pots (diameter 12 cm) and were used as host plants when the first leaf was fully grown and open. Each test group of three pots was treated with one of the active compounds shown in Table 4 by spraying an aqueous suspension containing 500 ppm of the active compound onto the plants at the rate of 30 ml per 3 pots. After air-drying the plants, a spore suspension of the pathogenic microorganism Colletotrichum lagenarium was sprayed onto the plants and the plants were kept in a wet room for 24 hours at 20°-22° C. and 100% relative humidity. The pots were then placed in a greenhouse at 26° C. and, seven days after the spore suspension had been sprayed on, the percentage diseased area of the cotyledon and the first leaf was calculated.

Sphaerotheca fuliginea = experiment: Effect on powdery mildew in cucumbers; type: in vivo; settings: cucumber powdery mildew; 500 ppm; 10 days
Method: as §1
Cucumber seedlings (variety Sagamihanshiro), planted two per 12 cm diameter pot, were used as host plants at the stage when the first leaf was fully grown and open. Each test group of three pots was treated with one of the active compounds shown in Table 5 by spraying an aqueous suspension containing 500 ppm of the active compound onto the plants at the rate of 20 ml per 3 pots. After air-drying the plants, the host plants were inoculated with the microorganism Sphaerotheca fuliginea by brushing already infected cucumber leaves with a small brush and letting the microorganism fall onto the host plants. The inoculated plants were kept in a greenhouse at 24°-26° C. for 10 days. At the end of this time, the percentage diseased area was measured.

guppies = experiment: Toxicity to guppies; type: in vivo; settings: LC50 after 48 hours classified
Method: In this example the toxicity of the compounds of the invention towards guppies was estimated and is compared with that of corresponding compounds as disclosed and claimed in our co-pending U.S. Application No. 910,117 filed May 30, 1978. The LC50 was determined after 48 hours and the toxicity to guppies was classified into the rankings (i), (ii) and (iii) according to the following classification scheme: […]

cockroach larvae = settings: 24 hours; 25° C.
[2] = tested on: third instar larvae of the tobacco cutworm; experiment: Repellent action against the third instar larvae of the tobacco cutworm; type: in vivo; parameters: key: -: no ingestion; ±: very little ingestion; +: some ingestion; ++: considerable ingestion; settings: cabbage leaves dipped in 500 ppm, 72 hours
Excerpt: as §1
Cabbage leaves were dipped for 30 seconds in an aqueous suspension containing 500 ppm of one of the active compounds shown in Table 6. After air-drying, each leaf was placed into a plastic receptacle having a diameter of 8 cm and the third instar larvae (10 per receptacle) of the tobacco cutworm were released onto the leaves. After 72 hours, the extent of ingestion of the leaves was measured, using two receptacles for each test compound. The results are shown in Table 6, using the following notation (which is also employed, with the same meaning, in following Table 9): […]

[3] = tested on: final instar larvae of the diamondback moth (Plutella xylostella); experiment: Repellent and emergence-inhibition effect on the final instar larvae of diamondback moths; type: in vivo; parameters: key to Extent of ingestion: -: no ingestion; ±: very little ingestion; +: some ingestion; ++: considerable ingestion; settings: 72 hours; for pest or weed control at 500 ppm: Plutella xylostella, read-out: Emergence-inhibition rate (%); for Extent of ingestion: radish leaves dipped in 500 ppm
Excerpt: as §1
Leaves of the Japanese radish (Raphanus sativus) were dipped for 30 seconds into a liquid containing 500 ppm of one of the compounds shown in Table 9. After air-drying the leaves, each leaf was placed into a plastic icecream cup (diameter 8 cm) and 15 final instar larvae of the diamondback moth (Plutella xylostella) were placed into each cup. Each test was conducted in duplicate and the results were averaged.

[4] = tested on: cotton aphid (Aphis gossyppi); experiment: Effect on the cotton aphid on cucumbers; type: in vivo; settings: 600 ppm; 5 sprayings Sept. 25 to Oct. 30; examined Nov. 9; untreated control 8.7
Excerpt: as §1
Cucumbers (variety "Tokiwa Hikari No. 3, Type P") were transplanted into a plastic greenhouse on September 12. Using a shoulder sprayer, a liquid containing 600 ppm of one of the compounds shown in Table 11 was sprayed on the surface and reverse side of the leaves on Sept. 25, Oct. 9, 16, 23 and 30. On Nov. 9, the effect on the cotton aphid (Aphis gossyppi) was investigated, sampling 25-30 leaves at random from each test area and calculating the number of colonies on each leaf; there were generally 50-100 aphids per colony. The results are shown as the number of colonies per leaf in Table 11, which also gives the results for a test area where no compound of the invention was applied.

Piricularia oryzae = type: in vivo; settings: rice blast; 500 ppm spray; mean, upper two leaves

| Compound | Diseased area (%) (Phytophthora infestans) | No. of disease spots per leaf (Alternalia solani) | Diseased area (%) [1] | Diseased area (%) (Sphaerotheca fuliginea) | Toxicity ranking (guppies) | Mortality rate (%), 0.5mg test cpd/10 cockroaches/bottle (cockroach larvae) | Mortality rate (%), 1mg test cpd/10 cockroaches/bottle (cockroach larvae) | Extent of ingestion [2] | pest or weed control at 500 ppm [3] | Extent of ingestion [3] | No. of colonies per leaf [4] | No. of disease spots per leaf (Piricularia oryzae) |
| --- | --- | --- | --- | --- | --- | --- | --- | --- | --- | --- | --- | --- |
| Cc1ccccc1OCCN(C)c1ncnc2ccccc12 [Compound No. 1, 4-{N-methyl-N-[2-(2-methylphenoxy)ethyl]amino}-quinazoline] | 0% | 8 spots per leaf | 0% | 0% | ii (all fish dead at 10 ppm but alive at 0.5 ppm) |  |  |  |  |  |  |  |
| CCN(CCOc1ccccc1C)c1ncnc2ccccc12 [Compound No. 2, 4-{N-ethyl-N-[2-(2-methylphenoxy)ethyl]amino}quinazoline] | 3% | 16 spots per leaf | 0% | 0% | ii (all fish dead at 10 ppm but alive at 0.5 ppm) | 90% | 100% |  |  |  |  |  |
| Cc1ccc(C(C)C)cc1OCCN(C)c1ncnc2ccccc12 [Compound No. 21, 4-{N-[2-(5-isopropyl-2-methylphenoxy)ethyl]-N-methylamino}quinazoline] | 12% |  | 0% | 0% |  | 90% | 100% | + | 90% | ± | 1.0 colonies per leaf |  |
| Cc1ccc(COCCN(C)c2ncnc3ccccc23)cc1 [compound 13, 4-{N-methyl-N-[2-(4-methylbenzyloxy)ethyl]amino}quinazoline] |  |  |  |  |  | 80% | 100% |  |  |  |  | 2.9 spots per leaf |
| CN(CCOCc1ccc(Cl)cc1)c1ncnc2ccccc12 [compound 14, 4-{N-[2-(4-chlorobenzyloxy)ethyl]-N-methylamino}quinazoline] |  |  |  |  |  |  |  |  |  |  |  | 1.5 spots per leaf |
| CC(C)c1ccccc1OCCN(C)c1ncnc2ccccc12 [compound 15, 4-{N-[2-(2-isopropylphenoxy)ethyl]-N-methylamino}quinazoline] | 0% |  |  | 0% | ii (all fish dead at 10 ppm but alive at 0.5 ppm) | 80% | 100% | ± to + | 60% | ± |  | 3.0 spots per leaf |
| Cc1ccc(OCCN(C)c2ncnc3ccccc23)c(C)c1 [compound 17, 4-{N-[2-(2,4-dimethylphenoxy)ethyl]-N-methylamino}-quinazoline] | 9% |  |  | 0% | ii (all fish dead at 10 ppm but alive at 0.5 ppm) | 90% | 100% | + | 50% | ± to + |  | 2.4 spots per leaf |
| Cc1ccc(OCCN(C)c2ncnc3ccccc23)cc1 [compound 18, 4-{N-methyl-N-[2-(4-methylphenoxy)ethyl]amino}quinazoline] | 16% |  |  | 8% |  | 90% | 100% |  |  |  |  | 2.6 spots per leaf |
| Cc1cc(Cl)ccc1OCCN(C)c1ncnc2ccccc12 [compound 22, 4-{N-[2-(4-chloro-2-methylphenoxy)ethyl]-N-methylamino}quinazoline] | 15% |  | 0% | 0% |  | 80% | 100% | ± to + | 80% | ± | 1.1 colonies per leaf |  |
| C=CCN(CCOc1ccccc1C(C)C)c1ncnc2ccccc12 [compound 25, 4-{N-allyl-N-[2-(2-isopropylphenoxy)ethyl]amino}quinazoline] | 0% | 15 spots per leaf | 8% | 0% |  | 85% | 100% |  |  |  |  |  |
| CCCCCCN(CCOc1ccccc1C(C)C)c1ncnc2ccccc12 [compound 44, 4-{N-hexyl-N-[2-(2-isopropylphenoxy)ethyl]amino}quinazoline] |  |  |  |  |  |  |  |  |  |  |  | 3.1 spots per leaf |
| CC=CCN(CCOc1ccccc1C(C)C)c1ncnc2ccccc12 [compound 51, 4-{N-(2-butenyl)-N-[2-(2-isopropylphenoxy)ethyl]amino}quinazoline] | 0% | 4 spots per leaf | 0% | 0% |  |  |  |  |  |  |  |  |
| CCCCCCCCc1ccc(C)c(OCCN(C)c2ncnc3ccccc23)c1 [compound 56, 4-{N-methyl-N-[2-(2-methyl-5-octylphenoxy)ethyl]amino}quinazoline] |  |  |  |  |  |  |  |  |  |  |  | 3.2 spots per leaf |
| CCCCCCCCc1ccc(OCCN(C)c2ncnc3ccccc23)c(C)c1 [compound 58, 4-{N-methyl-N-[2-(2-methyl-4-octylphenoxy)ethyl]amino}quinazoline] | 10% |  |  |  |  | 90% | 100% | ± to + | 85% | ± | 0.5 colonies per leaf |  |
